Laboratory results taken from US5225607A, “Insecticidal ethers” (Imperial Chemical Industries PLC, priority 1985, dated 1993).

Columns and labels:
Format in all cases: in vivo
Diabrotica balteata = test: Insecticidal test, Diabrotica balteata (rootworm larvae), residual; conditions: 72 h, filter paper/maize seed, 3 days, read-out: grading of mortality, DB
Method in brief: (§1)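 Compound dissolved in acetone, diluted with water containing 0.01% wetting agent to 500, 250 or 100 ppm. Pests on host plant or food; pests and/or medium treated. Mortality scored 1–3 days later, graded A (80–100%; 70–100% for S. exigua), B (50–79%; 50–69%), C (<50%).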

Nilaparvata lugens = test: Insecticidal test, Nilaparvata lugens (brown planthopper), contact; conditions: 72 h, Cabbage leaf, 3 days, read-out: grading of mortality, NL
Method in brief: as §1

Spodoptera exigua = test: Insecticidal test, Spodoptera exigua (lesser armyworm), residual; conditions: 72 h, cotton leaf, 3 days, read-out: grading of mortality, SE
Procedure: The activity of the Product was determined using a variety of insect and acarine pests. The Product was used in the form of liquid preparations containing 500, 250 or 100 parts per million (ppm) by weight of the Product. The preparations were made by dissolving the Product in acetone and diluting the solutions with water containing 0.01% by weight of a wetting agent sold under the trade name "LISSAPOL" NX until the liquid preparations contained the required concentratio of the Product. "Lissapol" is a Registered Trade Mark.
The test procedure adopted with regard to each pest was basically the same and comprised supporting a number of the pests on a medium which was usually a host plant or a foodstuff on which the pests feed, and treating either or both the pests and the medium with the preparations. The mortality of the pests was then assessed at periods usually varying from one to three days after the treatment.
The results of the tests are given in Table IV for each of the Products, at the rate in parts per million given in the second column as a grading of mortality designated as A, B or C wherein A indicates 80-100% mortality or knockdown (70-100% in the case of Spodoptera exigua), B indicates 50-79% mortality or knockdown (50-69% in the case of Spodoptera exigua) and C indicates less than 50% mortality or knockdown.
In Table IV the pest organism used is designated by a letter code and the pest species, the support medium or food, and the type and duration of test is given in Table III.

Blattella germanica = test: Insecticidal test, Blattella germanica (cockroach nymphs), residual; conditions: 72 h, plastic pot, 3 days, read-out: grading of mortality, BG
Method in brief: as §1

Heliothis virescens = test: whole plant or invertebrate; conditions: in Gossypium hirsutum, 72 h, read-out: grading of mortality, HV
Method in brief: as §1

Myzus persicae = test: Insecticidal test, Myzus persicae (aphids), contact; conditions: 72 h, Chinese Cabbage leaf, 3 days, read-out: grading of mortality, MP
Method in brief: as §1

Tetranychus urticae = test: Insecticidal/acaricidal test, Tetranychus urticae (spider mites - adult), contact; conditions: 72 h, French bean leaf, 3 days, read-out: grading of mortality, TU
Method in brief: as §1

Musca domestica [1] = test: Knockdown test, Musca domestica (houseflies - adults); conditions: cotton wool/sugar, 4 hours, read-out: grading of knockdown, MD/KD
Method in brief: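 Knockdown scores were banded: A 80–100%, B 50–79%, C <50%. Test preparations of 500, 250 or 100 ppm compound were made in acetone, then diluted with water containing 0.01% Lissapol NX, and applied to Musca domestica adults.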

Musca domestica [2] = test: Insecticidal test, Musca domestica (houseflies - adults), contact; conditions: 24 h, cotton wool/sugar, 1 day, read-out: grading of mortality, MD
Method in brief: as §1

SMILES | mortality at 500 ppm (Diabrotica balteata) [%] | mortality at 500 ppm (Nilaparvata lugens) [%] | mortality at 500 ppm (Spodoptera exigua) [%] | mortality at 500 ppm (Blattella germanica) [%] | mortality at 500 ppm (Heliothis virescens) [%] | mortality at 500 ppm (Myzus persicae) [%] | mortality at 500 ppm (Tetranychus urticae) [%] | pest or weed control at 500 ppm (Musca domestica [1]) [%] | mortality at 500 ppm (Musca domestica [2]) [%] | mortality at 250 ppm (Diabrotica balteata; 250 ppm) [%] | mortality at 250 ppm (Nilaparvata lugens; 250 ppm) [%] | mortality at 250 ppm (Spodoptera exigua; 250 ppm) [%] | mortality at 250 ppm (Blattella germanica; 250 ppm) [%] | mortality at 250 ppm (Heliothis virescens) [%] | mortality at 250 ppm (Myzus persicae; 250 ppm) [%] | mortality at 250 ppm (Tetranychus urticae; 250 ppm) [%] | pest or weed control at 250 ppm (Musca domestica [1]; 250 ppm) [%] | mortality at 250 ppm (Musca domestica [2]; 250 ppm) [%]
CCOc1c(F)cc(C(COCc2cccc(Oc3ccccc3)c2)C(F)(F)F)cc1F (racemic) [Compound 163, (RS)-1,1,1-trifluoro-2-(3,5-difluoro-4-ethoxyphenyl)-3-(3-phenoxybenzyloxy)propane] | 80 to 100 | 80 to 100 | 70 to 100 | 80 to 100 | 80 to 100 | 80 to 100 | 80 to 100 | 80 to 100 | 80 to 100 |  |  |  |  |  |  |  |  | 
CCOc1c(F)cc(C(COCc2cccc(Oc3ccc(Cl)cc3)c2)C(F)(F)F)cc1F (racemic) [Compound 165, (RS)-1,1,1-Trifluoro-2-(3,5-difluoro-4-ethoxyphenyl)-3 (3-(4-chlorophenoxy)benzyloxy)propane] | 80 to 100 | 80 to 100 | 70 to 100 | 80 to 100 | 80 to 100 | 80 to 100 | 80 to 100 | 80 to 100 | 80 to 100 |  |  |  |  |  |  |  |  | 
CCOc1c(F)cc(C(COCc2ccc(F)c(Oc3ccccc3)c2)C(F)(F)F)cc1F (racemic) [Compound 166, (RS)-1,1,1-Trifluoro-2-(3,5-difluoro-4-ethoxyphenyl)-3-(3-phenoxy-4-fluorobenzyloxy)propane] | 80 to 100 | 80 to 100 | 70 to 100 | 80 to 100 | 80 to 100 | 50 to 79 | 80 to 100 | 80 to 100 | 80 to 100 |  |  |  |  |  |  |  |  | 
CCOc1c(F)cc(C(O)(COCc2cccc(Oc3ccccc3)c2)C(F)(F)F)cc1F (racemic) [Compound 176, (RS)-1,1,1-trifluoro-2-(3,5-difluoro-4-ethoxyphenyl)-3-(3-phenoxybenzyloxy)propan-2-ol] | 80 to 100 | < 50 | 70 to 100 | < 50 | 50 to 79 | < 50 | < 50 | 80 to 100 | < 50 |  |  |  |  |  |  |  |  | 
CCOc1ccc([C@H](CO[C@@H](C#N)c2cccc(Oc3ccccc3)c2)C(F)(F)F)cc1 (racemic) [Compound 252, (2RS)-1,1,1-trifluoro-2-(4-ethoxyphenyl)-3-[(RS)-α-cyano-3-phenoxybenzyloxy]propane] | 80 to 100 | 80 to 100 | 70 to 100 | 50 to 79 | 80 to 100 | 80 to 100 | < 50 | 80 to 100 | 80 to 100 |  |  |  |  |  |  |  |  | 
CCOc1ccc([C@H](CO[C@H](C)c2cccc(Oc3ccccc3)c2)C(F)(F)F)cc1 (racemic) [Compound 256, (2RS)-1,1,1-trifluoro-2-(4-ethoxyphenyl)-3-[(1RS)-1-(3-phenoxyphenyl)ethoxy]propane] | < 50 | 80 to 100 | < 50 | < 50 | 80 to 100 | 80 to 100 | < 50 | 50 to 79 | 80 to 100 |  |  |  |  |  |  |  |  | 
CCOc1ccc(C(COC(c2cccc(Oc3ccccc3)c2)C(F)(F)F)C(F)(F)F)cc1 (racemic) [Compound 264] | < 50 |  | 70 to 100 | < 50 | < 50 | < 50 | 50 to 79 | < 50 | < 50 |  |  |  |  |  |  |  |  | 
CCOc1ccc(C(COCc2ccc(F)c(Cc3ccccc3)c2)C(F)(F)F)cc1 (centres unmarked) [Compound 8] | 80 to 100 | 80 to 100 | 70 to 100 | 80 to 100 | 80 to 100 | 80 to 100 | < 50 | 80 to 100 | 80 to 100 |  |  |  |  |  |  |  |  | 
CCOc1ccc(C(COCc2cccc(Oc3ccc(F)cc3F)c2)C(F)(F)F)cc1 (centres unmarked) [Compound 10, 1,1,1-Trifluoro-2-(4-ethoxyphenyl)-3-(3-(2,4-difluorophenoxy)benzyloxy)propane] |  |  |  |  |  |  |  |  |  | 80 to 100 | 80 to 100 | 70 to 100 | 80 to 100 | 80 to 100 | 50 to 79 | < 50 | 80 to 100 | 80 to 100
Cc1ccc(C(COCc2cccc(Oc3ccccc3)c2)C(F)(F)F)cc1 (centres unmarked) [Compound 22, 1,1,1-Trifluoro-2-(4-methylphenyl)-3-(3-phenoxybenzyloxy)propane] | 80 to 100 | 80 to 100 | 70 to 100 | 80 to 100 | 50 to 79 |  | < 50 | 80 to 100 | 80 to 100 |  |  |  |  |  |  |  |  | 
CCOc1ccc(C(O)(COCc2cccc(-c3ccccc3)c2C)C(F)(F)F)cc1 (centres unmarked) [Compound 142, 1,1,1-Trifluoro-2-(4-ethoxyphenyl)-3-(2-methyl-3-phenylbenzyloxy)propan-2-ol] | < 50 | < 50 |  | < 50 | 80 to 100 | < 50 | 80 to 100 | < 50 | < 50 |  |  |  |  |  |  |  |  | 
Fc1ccc(COC=C(c2ccc(Cl)cc2)C(F)(F)F)cc1Oc1ccccc1 [Compound 458, 1,1,1-trifluoro-2-(4-chlorophenyl)-3-(3-phenoxy-4-fluorobenzyloxy)prop-2-ene] | 80 to 100 | 80 to 100 |  | 50 to 79 | 80 to 100 | < 50 | < 50 | 80 to 100 | 80 to 100 |  |  |  |  |  |  |  |  | 
Fc1ccc(COC=C(c2ccc3c(c2)CCC3)C(F)(F)F)cc1Oc1ccccc1 [Compound 459, 1,1,1-trifluoro-2-(5-indanyl)-3-(3-phenoxy-4-fluorobenzyloxy)prop-2-ene] | 80 to 100 | < 50 |  | < 50 | < 50 | < 50 | 80 to 100 | 50 to 79 | < 50 |  |  |  |  |  |  |  |  | 
CCCc1ccc(C(=COCc2ccc(F)c(Oc3ccccc3)c2)C(F)(F)F)cc1 [Compound 460, 1,1,1-trifluoro-2-(4-n-propylphenyl)-3-(3-phenoxy-4-fluorobenzyloxy)prop-2-ene] | 50 to 79 | 50 to 79 |  | 80 to 100 | < 50 | < 50 | < 50 | < 50 | < 50 |  |  |  |  |  |  |  |  | 
FC(F)(F)Oc1ccc(C(=COCc2cccc(Oc3ccccc3)c2)C(F)(F)F)cc1 [Compound 463, 1,1,1-trifluoro-2-(4-trifluoromethoxyphenyl)-3-(3-phenoxybenzyloxy)prop-2-ene] | 80 to 100 | < 50 |  | 80 to 100 | 80 to 100 | 80 to 100 | < 50 | < 50 | < 50 |  |  |  |  |  |  |  |  | 
